Reference: US20250262279A1, “DOSE REGIMEN FOR LONG-ACTING GLP1/GLUCAGON RECEPTOR AGONISTS” (Boehringer Ingelheim International GmbH, priority 2021, published 2025)

Assay: Example 3: safety (AEs, laboratory, ECG, vital signs, NASH scores)
Format: in vivo, human
Experimental: • Semaglutide • Dose: 0.25, 0.25, 0.25, 0.25, 0.5, 0.5, 0.5, 0.5, 1.0 mg (weeks 9−16) once weekly • Mode of administration: Solution for injection
Safety endpoints included Columbia-Suicide Severity Rating Scale (C-SSRS) and various electrocardiograms (ECG) assessments. Safety was assessed based on adverse events (AEs), adverse event of special interest (AESIs), clinical laboratory assessments, vital signs, and physical examination. AESIs were pre-specified in the protocol as pancreatitis and hepatic injury.
Analyses of safety were descriptive.

## CC[C@H](C)[C@H](NC(=O)[C@H](Cc1ccccc1)NC(=O)[C@H](CCC(=O)O)NC(=O)[C@H](CCCCNC(=O)COCCOCCNC(=O)COCCOCCNC(=O)CC[C@H](NC(=O)CCCCCCCCCCCCCCCCC(=O)O)C(=O)O)NC(=O)[C@H](C)NC(=O)[C@H](C)NC(=O)[C@H](CCC(N)=O)NC(=O)CNC(=O)[C@H](CCC(=O)O)NC(=O)[C@H](CC(C)C)NC(=O)[C@H](Cc1ccc(O)cc1)NC(=O)[C@H](CO)NC(=O)[C@H](CO)NC(=O)[C@@H](NC(=O)[C@H](CC(=O)O)NC(=O)[C@H](CO)NC(=O)[C@@H](NC(=O)[C@H](Cc1ccccc1)NC(=O)[C@@H](NC(=O)CNC(=O)[C@H](CCC(=O)O)NC(=O)C(C)(C)NC(=O)[C@@H](N)Cc1cnc[nH]1)[C@@H](C)O)[C@@H](C)O)C(C)C)C(=O)N[C@@H](C)C(=O)N[C@@H](Cc1c[nH]c2ccccc12)C(=O)N[C@@H](CC(C)C)C(=O)N[C@H](C(=O)N[C@@H](CCCNC(=N)N)C(=O)NCC(=O)N[C@@H](CCCNC(=N)N)C(=O)NCC(=O)O)C(C)C [semaglutide, reference compound]
Ex.3, whole trial
  deaths: no deaths
In vivo
  AEs leading to discontinuation of trial medication, number of patients: 2 N
  AEs leading to discontinuation of trial medication, percentage of patients: (4.0) %
  AEs of special interest, number of patients: 0 N
  Any AE, number of patients: 26 N
  Any AE, percentage of patients: (52.0) %
  Investigator defined drug-related AEs, number of patients: 19 N
  Investigator defined drug-related AEs, percentage of patients: (38.0) %
  Serious AEs, number of patients: 0 N
  Severe AEs, number of patients: 0 N
  cases of pancreatitis: no cases of pancreatitis
  patients with SAEs: 0 patients
  patients with SAEs assessed as drug-related by the investigator: 0 patients
  proportion of patients with PCSA high glucose on treatment: 5.0%
  severe AEs and serious AEs: no severe AEs or serious AEs
